We go through three compounds from PMC6268140, “Absorption and Interaction of the Main Constituents from the Traditional Chinese Drug Pair Shaoyao-Gancao via a Caco-2 Cell Monolayer Model” (Molecules, 2012).

Bounds are passed on as bounds.

The nature of data set [1]: Transport across Caco-2 cell monolayers (A-B and B-A directions). The note with it: human; for Papp A→B at 4 h: Caco-2, pH 7.4; for efflux ratio at 4 h: Caco-2, pH 7.4, Efflux ratio PBA/PAB; for Papp at 4 h: mean ± SD, n = 3.
Experimental: Cells were cultured in a humidified atmosphere of 5% CO2 and 95% air at 37 °C. The Dulbecco’s modified Eagle’s medium was supplemented with 10% (v/v) fetal bovine serum, 1% nonessential amino acids, 100 U/mL penicillin, and 100 µg/mL streptomycin. When the cell culture reached 80% confluence, it was rinsed with phosphate-buffered saline and split using trypsin. For transport experiments, the cells were seeded on 3 μm porous polycarbonate cell culture inserts from Nunc, which has a surface area of 4.2 cm^2 at a density of 2,500,000 cells/cm^2. The culture media was replaced every other day. The monolayers were ready for experiments from 19 to 22 days after seeding. Well-developed Caco-2 cell monolayers with transepithelial electrical resistance (TEER) values greater than 400 Ω × cm^2 were used for the experiment.
Paeoniflorin, glycyrrhizic acid, and liquiritin were dissolved in dimethyl sulfoxide (DMSO)-ethanol (v/v = 1/1) to prepare the stock solution (10 mM) for each single compound. The above-mentioned solutions were further diluted with Hank’s balanced salt solution (HBSS, pH = 7.4) to obtain a series of working standard solutions, and the final concentrations of paeoniflorin, glycyrrhizic acid, or liquiritin in the transport samples were 50 µM, 20 µM, or 50 µM, respectively. Moreover, the final concentrations of the organic solvent of different samples were controlled below 0.5% to ensure the safety to the cells.
Dry Shaoyao (100 g) or Gancao (100 g) herb materials were extracted twice with boiling water for 1 h each time, and the solutions were filtered through gauze. Then, the filtrates were merged and concentrated to 100 mL as the Shaoyao extract (1 g/mL) containing paeoniflorin (22.41 mg/mL) or Gancao extract (1 g/mL) containing glycyrrhizic acid (16.35 mg/mL) and liquiritin (22.38 mg/mL). Subsequently, the single extract or mixed extract was dissolved in HBSS (pH = 7.4) to obtain a series of working standard solutions, and the final concentrations of paeoniflorin, glycyrrhizic acid, or liquiritin in the transport samples were 50 µM, 22 µM, or 54 µM, respectively. In addition, the ratio of Shaoyao and Gancao in the mixed extract was 1:1. Meanwhile, testosterone (internal standard) was dissolved in acetonitrile with acetic acid (v/v = 94/6) to 100 µM. In addition, verapamil was dissolved in water to 5 mM when it was used.
The cell monolayers were washed three times with 37 °C HBSS (pH 7.4). The monolayers were incubated with the buffer for 1 h, and the incubation medium was then aspirated. Afterwards, a single component or extract solution was loaded on the apical or basolateral side. When the transport inhibitor (verapamil) was used, it was loaded only at the donor side. The amounts of transported drugs in the receiver media were determined by ultra-performance liquid chromatography (UPLC). In the test for each solution, four donor samples (400 μL) and four receiver samples (400 μL) were taken at time intervals of 1, 2, 3, and 4 h, followed by an immediate replacement with fresh donor solution (400 μL) to the donor side or fresh buffer (400 μL) to the receiver side.
To each transport sample (400 μL), 100 μL of acetonitrile containing 100 μM of testosterone was added as an internal standard and a preservative. The resulting mixture was vortexed for 30 s and then centrifuged at 15,000 rpm for 15 min, and the supernatant obtained was analyzed by UPLC.
UPLC was used to determine the concentration of the compounds in the transport samples.
In the next data set the test system is Caco-2 cell monolayers. The data set is described as above. The note with it: mixture of Shaoyao-Gancao extract vs. Gancao extract; 22 μM.
Another data set deals with P-glycoprotein (P-gp) (Homo sapiens, UniProt P08183). As to conditions: Caco-2, 4 h, 50 µM, pH 7.4. The text has this:
To determine whether P-gp is involved in the transport of these compounds, their transports were studied in the presence of verapamil, a known inhibitor for P-gp.
All data were presented as means ± SD. […] Results were considered significant at p < 0.05.

Setting [2] is: single component solution, paeoniflorin 50 μM, glycyrrhizic acid 20 μM, liquiritin 50 μM.
[3] abbreviates: Caco-2, pH 7.4, Papp PAB, in the mixture of Shaoyao-Gancao extract (1:1), paeoniflorin 50 μM, glycyrrhizic acid 22 μM, liquiritin 54 μM.
Setting [4] is: Caco-2, pH 7.4, Papp PAB, paeoniflorin in Shaoyao extract (50 μM), glycyrrhizic acid (22 μM) and liquiritin (54 μM) in Gancao extract.
The mark [5] stands for this setting: Caco-2, pH 7.4, Papp PBA (secretary permeability), single component solution, paeoniflorin 50 μM, glycyrrhizic acid 20 μM, liquiritin 50 μM, HBSS pH 7.4.
The mark [6] stands for this setting: Caco-2, pH 7.4, Papp PBA, in the mixture of Shaoyao-Gancao extract (1:1), paeoniflorin 50 μM, glycyrrhizic acid 22 μM, liquiritin 54 μM.
Setting [7] is: Caco-2, pH 7.4, Papp PBA, paeoniflorin in Shaoyao extract (50 μM), glycyrrhizic acid (22 μM) and liquiritin (54 μM) in Gancao extract.

Sequence of P-glycoprotein (P-gp) (P08183 whole entry): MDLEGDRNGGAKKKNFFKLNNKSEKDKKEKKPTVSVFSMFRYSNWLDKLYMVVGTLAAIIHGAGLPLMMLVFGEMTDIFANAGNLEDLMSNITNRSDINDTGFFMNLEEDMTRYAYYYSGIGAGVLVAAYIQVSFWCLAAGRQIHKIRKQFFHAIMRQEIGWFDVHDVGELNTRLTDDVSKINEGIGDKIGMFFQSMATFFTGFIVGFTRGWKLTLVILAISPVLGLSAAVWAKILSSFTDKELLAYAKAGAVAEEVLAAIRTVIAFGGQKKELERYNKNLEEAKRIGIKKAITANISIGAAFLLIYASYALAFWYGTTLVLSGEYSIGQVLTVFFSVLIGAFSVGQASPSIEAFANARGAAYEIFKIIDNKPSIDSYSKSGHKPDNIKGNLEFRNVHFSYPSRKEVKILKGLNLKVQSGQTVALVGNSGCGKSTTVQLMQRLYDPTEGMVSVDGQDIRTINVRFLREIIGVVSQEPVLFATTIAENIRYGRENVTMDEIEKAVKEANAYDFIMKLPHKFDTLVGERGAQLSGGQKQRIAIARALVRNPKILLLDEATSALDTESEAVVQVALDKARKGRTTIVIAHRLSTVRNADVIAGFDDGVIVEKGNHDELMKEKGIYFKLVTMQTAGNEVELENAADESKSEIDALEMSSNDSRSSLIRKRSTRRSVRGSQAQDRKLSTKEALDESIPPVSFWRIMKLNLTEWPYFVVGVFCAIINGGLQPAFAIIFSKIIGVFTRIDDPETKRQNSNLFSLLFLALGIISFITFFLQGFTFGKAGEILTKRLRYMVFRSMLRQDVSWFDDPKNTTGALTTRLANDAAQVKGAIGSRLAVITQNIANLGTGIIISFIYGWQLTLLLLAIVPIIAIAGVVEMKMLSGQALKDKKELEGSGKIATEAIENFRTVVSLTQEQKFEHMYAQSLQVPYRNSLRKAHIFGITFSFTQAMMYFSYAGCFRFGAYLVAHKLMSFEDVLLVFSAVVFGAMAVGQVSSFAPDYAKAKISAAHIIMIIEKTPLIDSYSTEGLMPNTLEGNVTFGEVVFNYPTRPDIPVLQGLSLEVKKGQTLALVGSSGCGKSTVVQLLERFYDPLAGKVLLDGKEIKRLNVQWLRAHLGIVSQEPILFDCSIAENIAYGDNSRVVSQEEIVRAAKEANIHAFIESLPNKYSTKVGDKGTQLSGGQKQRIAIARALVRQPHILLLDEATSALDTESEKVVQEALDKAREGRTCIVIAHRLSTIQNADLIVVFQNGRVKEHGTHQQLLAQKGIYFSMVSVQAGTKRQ

For orientation: Papp A→B means how fast a substance crosses the layer from the apical side. Higher therefore signals ready permeation. As usually defined, the efflux ratio is a quotient of directional permeabilities that is used to spot active efflux. As usually defined, the Papp is a coefficient for how fast a substance crosses the barrier. With `CC1(C)[C@@H](O[C@H]2O[C@H](C(=O)O)[C@@H](O)[C@H](O)[C@H]2O[C@@H]2O[C@H](C(=O)O)[C@@H](O)[C@H](O)[C@H]2O)CC[C@]2(C)[C@H]3C(=O)C=C4[C@@H]5C[C@@](C)(C(=O)O)CC[C@]5(C)CC[C@@]4(C)[C@]3(C)CC[C@@H]12` [Glycyrrhizic acid], the Papp A→B at 4 h in data set [1] was found to be 0.36 ± 0.04 ×10⁻⁶ cm/s. In addition, the efflux ratio at 4 h, 22 µM in data set [1] (Caco-2, pH 7.4, Decrease of efflux ratio in the mixture compared to the Gancao extract, mixture of Shaoyao-Gancao extract vs. Gancao extract, 22 μM) is > 1. Also, the efflux ratio at 4 h in data set [1] (setting [2]) amounted to 2.31. Besides, the Papp at 4 h in data set [1] (setting [3]) turned out to be 1.17 ± 0.08 ×10⁻⁶ cm/s; in data set [1] (setting [4]), 0.41 ± 0.05 ×10⁻⁶ cm/s; in data set [1] (setting [5]), 0.83 ± 0.07 ×10⁻⁶ cm/s; in data set [1] (setting [6]), 1.21 ± 0.06 ×10⁻⁶ cm/s; in data set [1] (setting [7]), 0.89 ± 0.04 ×10⁻⁶ cm/s. Also, the “Increase of PAB in the mixture compared to PAB in the Gancao extract” value in the data set with Caco-2 cell monolayers is on record as “over two times”.
Take `O=C1C[C@@H](c2ccc(O[C@@H]3O[C@H](CO)[C@@H](O)[C@H](O)[C@H]3O)cc2)Oc2cc(O)ccc21` [Liquiritin]: the “Decrease in the efflux ratio after addition of verapamil” value at P-glycoprotein (P-gp) was determined as 60.47%. Further, in data set [1], the Papp A→B at 4 h turned out to be 0.73 ± 0.04 ×10⁻⁶ cm/s. For the same compound, the efflux ratio at 4 h in data set [1] (setting [2]) came to 2.15. Also, the Papp at 4 h came out at 1.31 ± 0.06 ×10⁻⁶ cm/s in data set [1] (setting [3]); 1.2 ± 0.06 ×10⁻⁶ cm/s in data set [1] (setting [4]); 1.57 ± 0.05 ×10⁻⁶ cm/s in data set [1] (setting [5]); 1.58 ± 0.04 ×10⁻⁶ cm/s in data set [1] (setting [6]); 1.59 ± 0.02 ×10⁻⁶ cm/s in data set [1] (setting [7]).
On to `C[C@@]12C[C@@]3(O)O[C@@H](O1)[C@]1(COC(=O)c4ccccc4)[C@H]3C[C@@]12O[C@@H]1O[C@H](CO)[C@@H](O)[C@H](O)[C@H]1O` [Paeoniflorin], for which the “Decrease in the efflux ratio after addition of verapamil” value on P-glycoprotein (P-gp) turned out to be 54.29%. The compound also yielded an apical-to-basolateral permeability (Papp A→B) at 4 h in data set [1] of 0.61 ± 0.09 ×10⁻⁶ cm/s. The efflux ratio at 4 h in data set [1] (setting [2]) was found to be 2.1. The Papp at 4 h is 1.96 ± 0.08 ×10⁻⁶ cm/s in data set [1] (setting [3]); 0.94 ± 0.11 ×10⁻⁶ cm/s in data set [1] (setting [4]); 1.28 ± 0.05 ×10⁻⁶ cm/s in data set [1] (setting [5]); 1.77 ± 0.07 ×10⁻⁶ cm/s in data set [1] (setting [6]); 1.3 ± 0.02 ×10⁻⁶ cm/s in data set [1] (setting [7]).
